Data reported in the NIST ThermoML archive (doi:10.1016/j.jct.2015.07.012).

How the values were obtained:
[1] = refractive index (Na D-line) (dimensionless); details: 303.15 K; 101.33 kPa; Liquid; Standard Abbe refractometry
[2] = 101.33 kPa, Liquid; for speed of sound: Sing-around technique in a fixed-path interferometer; for mass density: Vibrating tube method
[3] = wn = mass fraction of the nth substance listed; details: 298.15 K, 100 kPa, Liquid; for speed of sound: Frequency=3 MHz, Sing-around technique in a fixed-path interferometer; for mass density: Vibrating tube method

CCCCCCC(=O)[O-].C[NH2+]C1CCCCC1 [N-methylcyclohexylammonium heptanoate]
Details	refractive index
[1]	1.4636

[2]
Details	mass density [kg/m3]	speed of sound [m/s]
293.15 K	945.8	1478.3
298.15 K	942.18	1458.5
303.15 K	938.51	1440.2
308.15 K	934.81	1422.2
313.15 K	931.05	1404.5
318.15 K	927.26	1385.1
323.15 K	923.44	1368.6
328.15 K	919.59	1351.4
333.15 K	915.71	1334.1
338.15 K	911.8	1316.1
343.15 K	907.85	1299.1

CCCCC(=O)[O-].C[NH2+]C1CCCCC1 [N-methylcyclohexylammonium pentanoate]
Details	refractive index
[1]	1.4627

[2]
Details	mass density [kg/m3]	speed of sound [m/s]
293.15 K	965.76	1495.3
298.15 K	962.21	1475.7
303.15 K	958.63	1456.7
308.15 K	955.01	1438.2
313.15 K	951.34	1420.1
318.15 K	947.63	1402.1
323.15 K	943.88	1384.2
328.15 K	940.1	1366.5
333.15 K	936.29	1348.8
338.15 K	932.44	1331.1
343.15 K	928.54	1313.5

CCCCCCCC(=O)[O-].C[NH2+]C1CCCCC1 [N-methylcyclohexylammonium octanoate]
Details	refractive index
[1]	1.464

[2]
Details	mass density [kg/m3]	speed of sound [m/s]
293.15 K	938.59	1471.6
298.15 K	935.17	1453.1
303.15 K	931.73	1435
308.15 K	928.25	1417.2
313.15 K	924.74	1399.5
318.15 K	921.21	1381
323.15 K	917.65	1363.7
328.15 K	914.07	1346.5
333.15 K	910.46	1329.4
338.15 K	906.82	1312.4
343.15 K	903.15	1295.4

CCCCCCCC(=O)[O-].C[NH2+]C1CCCCC1 [N-methylcyclohexylammonium octanoate] + O
[3]
Details	mass density [kg/m3]	speed of sound [m/s]
w2 = 0.002193	935.17	1453.1
w2 = 0.004032	935.76	1457.6
w2 = 0.005228	936.14	1459.7
w2 = 0.007628	937.01	1462.3
w2 = 0.009495	937.53	1463.2

CCCCCC(=O)[O-].C[NH2+]C1CCCCC1 [N-methylcyclohexylammonium hexanoate]
Details	refractive index
[1]	1.4631

[2]
Details	mass density [kg/m3]	speed of sound [m/s]
293.15 K	955.14	1484
298.15 K	951.65	1464.9
303.15 K	948.13	1446.4
308.15 K	944.56	1428.2
313.15 K	940.96	1410.3
318.15 K	937.32	1392.6
323.15 K	933.66	1375
328.15 K	929.96	1357.5
333.15 K	926.23	1340
338.15 K	922.46	1322.6
343.15 K	918.66	1305.2
